Experimental data from patent US8921376B2, “Pyrrolopyridines useful as inhibitors of protein kinase” (Vertex Pharmaceuticals Incorporated, priority 2005, dated 2014).

Experiments:
Format in all cases: biochemical
Conditions in all cases: Table 6; enzyme inhibition data (Ki)
JAK3 = target: T1, JAK3 (Homo sapiens, UniProt P52333); experiment: JAK3 inhibition assay (33P incorporation into poly(Glu)4Tyr)
T1 sequence (P52333 1-1124): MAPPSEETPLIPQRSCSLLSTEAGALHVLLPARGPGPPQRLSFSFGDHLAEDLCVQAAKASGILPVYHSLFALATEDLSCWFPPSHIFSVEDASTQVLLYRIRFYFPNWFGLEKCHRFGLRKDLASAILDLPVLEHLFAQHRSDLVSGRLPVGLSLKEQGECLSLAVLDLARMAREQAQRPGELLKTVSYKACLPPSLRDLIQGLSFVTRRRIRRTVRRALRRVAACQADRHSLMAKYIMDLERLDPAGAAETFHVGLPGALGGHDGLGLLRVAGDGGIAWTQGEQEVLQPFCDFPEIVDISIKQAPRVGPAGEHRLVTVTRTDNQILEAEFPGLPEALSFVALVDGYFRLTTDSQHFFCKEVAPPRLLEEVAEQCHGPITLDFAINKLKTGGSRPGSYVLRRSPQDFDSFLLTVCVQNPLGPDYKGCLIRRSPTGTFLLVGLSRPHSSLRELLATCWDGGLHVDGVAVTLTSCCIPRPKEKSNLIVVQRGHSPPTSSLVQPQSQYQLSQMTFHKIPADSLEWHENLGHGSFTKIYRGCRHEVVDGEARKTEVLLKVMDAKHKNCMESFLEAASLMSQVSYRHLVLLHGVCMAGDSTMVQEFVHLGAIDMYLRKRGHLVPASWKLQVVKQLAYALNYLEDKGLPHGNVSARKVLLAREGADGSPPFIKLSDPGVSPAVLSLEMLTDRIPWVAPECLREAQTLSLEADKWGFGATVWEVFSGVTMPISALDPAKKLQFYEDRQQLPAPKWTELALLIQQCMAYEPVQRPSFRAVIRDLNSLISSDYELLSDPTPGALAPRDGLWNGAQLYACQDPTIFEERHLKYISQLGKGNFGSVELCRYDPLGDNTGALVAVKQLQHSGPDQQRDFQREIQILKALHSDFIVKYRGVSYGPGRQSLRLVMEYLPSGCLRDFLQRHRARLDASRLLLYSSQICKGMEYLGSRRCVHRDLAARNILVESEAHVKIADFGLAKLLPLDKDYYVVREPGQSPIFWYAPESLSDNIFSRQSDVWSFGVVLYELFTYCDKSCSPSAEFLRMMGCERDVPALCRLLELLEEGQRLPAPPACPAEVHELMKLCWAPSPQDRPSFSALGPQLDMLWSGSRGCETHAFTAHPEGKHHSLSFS
Outline: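 After TCA quench and filter harvest, scintillation counting of 33P measured phosphorylation of poly(Glu)4Tyr (1 μM) by 1 nM JAK3. The 20-min, 25° C. reaction contained 5 μM ATP (200 μCi/μmole) in pH 7.4 HEPES buffer with 10 mM MgCl2.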

JAK2 = JAK2 (Homo sapiens, UniProt O60674); experiment: JAK2 inhibition assay (as Example 3 with JAK-2 enzyme)
Outline: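 In HEPES pH 7.4 buffer with 10 mM MgCl2, 1 mM DTT, 25 mM NaCl and 0.01% BSA, JAK2 enzyme phosphorylated poly(Glu)4Tyr (final 15 μM) using 33P-ATP (final 12 μM) for 20 min at room temperature (25 °C). Reactions stopped with TCA; incorporated 33P measured by scintillation after filtration.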

ROCK I = ROCK I (Homo sapiens, UniProt Q13464); experiment: ROCK-I inhibition assay (radioactive enzyme assay, MBP substrate)
Outline: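 Human ROCK at 5 nM phosphorylated 27 μM myelin basic protein with 13 μM [γ-33P]ATP (final) in HEPES pH 7.5, MgCl2, NaCl, DTT and 1.5% DMSO. Reactions ran 2 h at room temperature before TCA quench and filter-plate scintillation counting. After background subtraction, data were fit to give Ki(app).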

Sequence of JAK2 (O60674 whole entry): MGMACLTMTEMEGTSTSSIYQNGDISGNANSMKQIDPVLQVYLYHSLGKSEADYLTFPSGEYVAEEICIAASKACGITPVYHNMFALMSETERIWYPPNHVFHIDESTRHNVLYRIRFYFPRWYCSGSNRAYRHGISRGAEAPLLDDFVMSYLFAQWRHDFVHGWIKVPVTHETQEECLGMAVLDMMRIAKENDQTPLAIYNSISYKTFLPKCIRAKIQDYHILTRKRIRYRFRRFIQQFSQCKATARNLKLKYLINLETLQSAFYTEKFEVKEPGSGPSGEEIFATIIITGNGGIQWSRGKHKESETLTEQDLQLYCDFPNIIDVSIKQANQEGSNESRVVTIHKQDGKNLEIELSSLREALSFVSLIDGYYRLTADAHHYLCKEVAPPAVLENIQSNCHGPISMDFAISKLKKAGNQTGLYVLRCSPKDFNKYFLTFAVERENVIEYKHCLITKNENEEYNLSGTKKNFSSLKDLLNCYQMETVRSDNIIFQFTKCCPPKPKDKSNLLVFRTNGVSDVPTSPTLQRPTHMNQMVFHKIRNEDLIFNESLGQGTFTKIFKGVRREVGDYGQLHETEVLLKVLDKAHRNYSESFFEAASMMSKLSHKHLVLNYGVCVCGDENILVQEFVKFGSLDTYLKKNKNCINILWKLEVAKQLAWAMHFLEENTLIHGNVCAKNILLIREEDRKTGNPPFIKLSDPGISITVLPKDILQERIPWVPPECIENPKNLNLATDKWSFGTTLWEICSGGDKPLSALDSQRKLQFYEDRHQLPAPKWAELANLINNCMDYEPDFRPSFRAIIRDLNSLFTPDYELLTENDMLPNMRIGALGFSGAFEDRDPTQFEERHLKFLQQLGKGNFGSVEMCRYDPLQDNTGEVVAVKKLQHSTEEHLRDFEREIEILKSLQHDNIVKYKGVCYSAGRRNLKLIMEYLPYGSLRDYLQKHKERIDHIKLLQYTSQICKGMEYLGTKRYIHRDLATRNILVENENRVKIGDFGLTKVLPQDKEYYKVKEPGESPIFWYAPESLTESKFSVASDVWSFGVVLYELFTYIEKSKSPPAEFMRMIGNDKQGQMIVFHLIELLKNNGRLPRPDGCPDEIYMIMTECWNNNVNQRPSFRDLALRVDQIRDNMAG
Sequence of ROCK I (Q13464 whole entry): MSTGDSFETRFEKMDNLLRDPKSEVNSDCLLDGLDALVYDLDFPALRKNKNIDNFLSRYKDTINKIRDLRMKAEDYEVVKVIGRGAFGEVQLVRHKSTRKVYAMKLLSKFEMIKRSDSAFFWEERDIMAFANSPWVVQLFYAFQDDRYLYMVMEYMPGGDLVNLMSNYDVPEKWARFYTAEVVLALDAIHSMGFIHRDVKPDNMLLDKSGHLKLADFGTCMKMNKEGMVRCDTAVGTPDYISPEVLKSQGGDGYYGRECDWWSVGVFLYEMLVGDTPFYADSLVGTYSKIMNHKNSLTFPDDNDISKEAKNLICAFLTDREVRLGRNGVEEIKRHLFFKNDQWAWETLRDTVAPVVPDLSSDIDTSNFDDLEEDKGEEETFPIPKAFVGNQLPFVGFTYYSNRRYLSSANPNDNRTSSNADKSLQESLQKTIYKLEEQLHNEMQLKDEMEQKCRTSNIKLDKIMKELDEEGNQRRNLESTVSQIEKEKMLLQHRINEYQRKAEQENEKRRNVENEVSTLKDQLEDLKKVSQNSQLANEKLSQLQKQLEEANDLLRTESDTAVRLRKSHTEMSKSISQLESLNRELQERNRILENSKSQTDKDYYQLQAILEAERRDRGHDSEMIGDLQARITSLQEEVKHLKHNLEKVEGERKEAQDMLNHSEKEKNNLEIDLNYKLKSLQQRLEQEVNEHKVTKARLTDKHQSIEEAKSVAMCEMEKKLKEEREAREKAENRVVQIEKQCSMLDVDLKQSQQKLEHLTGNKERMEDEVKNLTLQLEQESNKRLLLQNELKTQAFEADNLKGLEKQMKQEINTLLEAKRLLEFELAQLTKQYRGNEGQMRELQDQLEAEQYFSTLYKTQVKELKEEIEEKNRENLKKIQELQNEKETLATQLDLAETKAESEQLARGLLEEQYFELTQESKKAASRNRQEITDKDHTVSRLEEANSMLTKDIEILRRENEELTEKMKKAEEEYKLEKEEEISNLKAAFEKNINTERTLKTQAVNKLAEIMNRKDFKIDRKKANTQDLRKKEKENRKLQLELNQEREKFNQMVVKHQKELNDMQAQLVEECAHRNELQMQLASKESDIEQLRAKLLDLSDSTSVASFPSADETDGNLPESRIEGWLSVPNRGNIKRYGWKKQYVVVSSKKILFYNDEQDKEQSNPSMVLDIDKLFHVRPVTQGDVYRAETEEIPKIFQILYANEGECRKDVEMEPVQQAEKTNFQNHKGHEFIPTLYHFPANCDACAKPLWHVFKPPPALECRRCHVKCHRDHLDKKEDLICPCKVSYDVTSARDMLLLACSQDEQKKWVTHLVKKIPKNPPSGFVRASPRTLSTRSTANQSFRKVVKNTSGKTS

SMILES | Ki (JAK3) | Ki (JAK2) | Ki (ROCK I)
O=C(c1cc(-c2c(F)cnc3[nH]ccc23)c[nH]1)N(CCC(F)(F)F)CC1CC1 [compound 390] | < 500 nM | < 500 nM | 500 to 5000 nM
N#CCN(Cc1ccccc1)C(=O)c1cc(-c2c(F)cnc3[nH]ccc23)c[nH]1 [compound 391] | < 500 nM | < 500 nM | < 500 nM
CCCN(CC1CC1)C(=O)c1cc(-c2c(F)cnc3[nH]ccc23)c[nH]1 [compound 392] | < 500 nM | < 500 nM | 500 to 5000 nM
CN(CC(F)(F)F)C(=O)c1cc(-c2c(F)cnc3[nH]ccc23)c[nH]1 [compound 393] | < 500 nM | < 500 nM | < 500 nM
N#CCCN(Cc1ccccc1)C(=O)c1cc(-c2c(F)cnc3[nH]ccc23)c[nH]1 [compound 394] | < 500 nM | < 500 nM | < 500 nM
CCN(Cc1ccccc1)C(=O)c1cc(-c2c(F)cnc3[nH]ccc23)c[nH]1 [compound 395] | < 500 nM | < 500 nM | 500 to 5000 nM
CCCN(CCC#N)C(=O)c1cc(-c2c(F)cnc3[nH]ccc23)c[nH]1 [compound 396] | < 500 nM | < 500 nM | < 500 nM
CCCCN(CCC#N)C(=O)c1cc(-c2c(F)cnc3[nH]ccc23)c[nH]1 [compound 397] | < 500 nM | < 500 nM | < 500 nM
N#CCCN(CC1CC1)C(=O)c1cc(-c2c(F)cnc3[nH]ccc23)c[nH]1 [compound 398] | < 500 nM | < 500 nM | < 500 nM
N#CCN(Cc1cccc(Cl)c1)C(=O)c1cc(-c2c(F)cnc3[nH]ccc23)c[nH]1 [compound 399] | < 500 nM | < 500 nM | < 500 nM
N#CCN(Cc1ccc(F)cc1)C(=O)c1cc(-c2c(F)cnc3[nH]ccc23)c[nH]1 [compound 400] | < 500 nM | < 500 nM | < 500 nM
C=CCN(CC=C)C(=O)c1csc(-c2ccnc3[nH]ccc23)n1 [compound 401] | < 500 nM | < 500 nM | < 500 nM
O=C(c1csc(-c2ccnc3[nH]ccc23)n1)N(CCC(F)(F)F)CC1CC1 [compound 402] | < 500 nM | < 500 nM | < 500 nM
N#CCCN(CC(F)(F)F)C(=O)c1csc(-c2ccnc3[nH]ccc23)n1 [compound 403] | < 500 nM | < 500 nM | < 500 nM
CCN(Cc1ccccc1)C(=O)c1csc(-c2ccnc3[nH]ccc23)n1 [compound 404] | < 500 nM | < 500 nM | < 500 nM
N#CCCN(CCC(F)(F)F)C(=O)c1csc(-c2ccnc3[nH]ccc23)n1 [compound 405, 2-(1H-Pyrrolo[2,3-b]pyridin-4-yl)-thiazole-4-carboxylic acid (2-cyano-ethyl)-(3,3,3-trifluoro-propyl)-amide] | < 500 nM | < 500 nM | < 500 nM
O=C(c1csc(-c2ccnc3[nH]ccc23)n1)N(CC1CC1)CC(F)(F)F [compound 406] | < 500 nM | < 500 nM | < 500 nM
CCCN(CC(F)(F)F)C(=O)c1csc(-c2ccnc3[nH]ccc23)n1 [compound 407] | < 500 nM | < 500 nM | < 500 nM

SMILES | Ki (JAK3) | Ki (JAK2) | Ki (ROCK I)
C=CCN(C(=O)c1csc(-c2ccnc3[nH]ccc23)n1)[C@@H](C)c1ccccc1 [compound 408] | < 500 nM | < 500 nM | < 500 nM
N#CCCN(CC1CC1)C(=O)c1csc(-c2ccnc3[nH]ccc23)n1 [compound 409] | < 500 nM | < 500 nM | < 500 nM
C=CCN(C(=O)c1csc(-c2ccnc3[nH]ccc23)n1)C1CCCC1 [compound 410] | < 500 nM | < 500 nM | < 500 nM
O=C(c1csc(-c2ccnc3[nH]ccc23)n1)N1CCC(CO)CC1 [compound 411] | 500 to 5000 nM | 500 to 5000 nM | 500 to 5000 nM
O=C(NCC1CC1)c1csc(-c2ccnc3[nH]ccc23)n1 [compound 412] | < 500 nM | < 500 nM | 500 to 5000 nM
CC(C)CCNC(=O)c1csc(-c2ccnc3[nH]ccc23)n1 [compound 413] | 500 to 5000 nM | < 500 nM | 500 to 5000 nM
CC1CC[C@@H](C)N1C(=O)c1csc(-c2ccnc3[nH]ccc23)n1 (stereo partly drawn) [compound 414] | < 500 nM | < 500 nM | < 500 nM
O=C(c1csc(-c2ccnc3[nH]ccc23)n1)N1CC=CC1 [compound 415] | 500 to 5000 nM | < 500 nM | < 500 nM
C[C@@H]1CC[C@@H](C)N1C(=O)c1csc(-c2ccnc3[nH]ccc23)n1 [compound 416] | < 500 nM | < 500 nM | < 500 nM
C[C@@H]1CC[C@H](C)N1C(=O)c1csc(-c2ccnc3[nH]ccc23)n1 [compound 417] | < 500 nM | < 500 nM | < 500 nM
O=C(c1csc(-c2ccnc3[nH]ccc23)n1)N1CCCC1 [compound 418] | 500 to 5000 nM | < 500 nM | < 500 nM
CC1CCCN1C(=O)c1csc(-c2ccnc3[nH]ccc23)n1 (stereo not drawn) [compound 419] | < 500 nM | < 500 nM | < 500 nM
CC1CCCCN1C(=O)c1csc(-c2ccnc3[nH]ccc23)n1 (stereo not drawn) [compound 420] | < 500 nM | < 500 nM | < 500 nM
C[C@@H]1CCC[C@H](C)N1C(=O)c1csc(-c2ccnc3[nH]ccc23)n1 [compound 421] | < 500 nM | < 500 nM | < 500 nM
CCOC(=O)[C@@H]1[C@@H](C)CCN1C(=O)c1csc(-c2ccnc3[nH]ccc23)n1 [compound 422] | 500 to 5000 nM | 500 to 5000 nM | 500 to 5000 nM
CCC1CCCCN1C(=O)c1csc(-c2ccnc3[nH]ccc23)n1 (stereo not drawn) [compound 423] | < 500 nM | < 500 nM | < 500 nM
O=C(Cn1ccc2cnc(-c3ccnc4[nH]ccc34)nc21)NCC(F)(F)F [compound 424] | < 500 nM | < 500 nM | > 4000 nM
CC(C)[C@H](C(=O)NCC(F)(F)F)n1ccc2cnc(-c3ccnc4[nH]ccc34)nc21 [compound 425] | < 500 nM | < 500 nM | > 4000 nM
